Experimental data from patent publication US5449814A, “Lignan analogues, methods of preparation thereof and anti-hyperlipemic agents” (Shionogi & Co., Ltd., priority 1991, dated 1995).
Where two headings read alike, the source gives them in different places.

What was measured:
LDL = assay: Inhibitory effect on oxidative modification of LDL (copper-induced, TBA reactive substances); format: biochemical, New Zealand albino rabbits; settings: rabbit LDL 0.2 mg protein/ml, 0.5 μM Cu^2+, 37° C., 24 hours; read-out: Inhibition of LDL oxidation IC50
Method: Inhibitory effect on oxidative modification of LDL
According to the method by Kita et al. (Proc. Natl. Acad. Sci., U.S.A, Vol. 84, 5928 (1987)), the experiment was proceeded as follows.
LDL was isolated from the blood of New Zealand albino rabbits fed with a diet containing 0.5% cholesterol for 3 weeks, and dissolved in phosphate-buffered physiological saline (final LDL concentration: 0.2 mg protein/ml). To this solution, each test compound in ethanol was added and then copper sulfate (final Cu^2+ concentration: 0.5 μM) was added thereto. The mixture was incubated at 37° C. for 24 hours.
After incubation, the content of lipid peroxides in each solution was determined as thiobarbituric acid reactive substances (TBA reactive substances). Concentration for 50% inhibition (IC50) was obtained from a linear regression curve of concentration of a compound versus % inhibition of oxidative modification of LDL. To quantify TBA reactive substances, proteins were removed from the solution after incubation, and the supernatant was examined for the content of TBA reactive substances by TBA method.

cholesterol in serum = assay: Hypocholesterolemic effect in cholesterol-fed mice; format: in vivo, Male ICR mice; settings: Mus musculus, po, 168 h, diet 1% cholesterol and 0.5% sodium cholate with 0.12% test compound, 7 days
Method: Hypocholesterolemic effect
Male ICR mice weighing 30 to 40 g were allowed to access to a diet containing 1% cholesterol and 0.5% sodium cholate supplemented with 0.12% of a test compound (no test compound in control group) ad libitum for 7 days. Then, the blood was taken and total cholesterol in serum was determined by the method of Allain (Clin. Chem., Vol. 20, 470 (1974)).
Total amount of VLDL cholesterol and LDL cholesterol was obtained by subtracting HLD cholesterol from total cholesterol. HLD cholesterol was quantified by the method of Ash and Hentschel et al. (Clin. Chem., Vol. 24, 2180 (1978)).
Hypocholesterolemic effect of a test compound was evaluated based on % reduction in cholesterol calculated using the equation shown below.

[1] = serum, read-out: Total Chol. reduction (%)
[2] = total minus HDL cholesterol, read-out: (VLDL + LDL) Chol. reduction (%)

SMILES | IC50 (LDL) | inhibition in vivo at 0.12 % in diet (cholesterol in serum; [1]) | inhibition in vivo at 0.12 % in diet (cholesterol in serum; [2])
CCC(CC)CC(=O)c1c(C(=O)OC)c(-c2ccc(OC)c(OC)c2)c2c(OC)c(OC)c(OC)cc2c1O [Example 1, 1-(3,4-dimethoxyphenyl)-3-(3-ethyl-1-oxopentyl)-4-hydroxy-2-methoxycarbonyl-6,7,8-trimethoxynaphthalene] | 0.4 µM | 35% | 72%
COC(=O)c1c(C(=O)c2ccc(C(C)(C)C)cc2)c(O)c2cc(OC)c(OC)c(OC)c2c1-c1ccc(OC)c(OC)c1 [Example 30, 3-[4-(t-Butyl)benzoyl]-1-(3,4-dimethoxyphenyl)-4-hydroxy-2-methoxycarbonyl-6,7,8-trimethoxynaphthalene] | 2 µM | 7% | 44%
CCC(=O)c1c(C(=O)OC)c(-c2ccc(OC)c(OC)c2)c2cc(OC(C)C)c(OC(C)C)cc2c1O [Example 38, 6,7-Bis(2-propyloxy)-1-(3,4-dimethoxyphenyl)-4-hydroxy-2-methoxycarbonyl-3-(1-oxopropyl)naphthalene] | 2.1 µM | 26% | 61%
CCCc1ccc(C(=O)c2c(C(=O)OC)c(-c3ccc(OC)c(OC)c3)c3c(OC)c(OC)c(OC)cc3c2O)cc1 [Example 29, 1-(3,4-Dimethoxyphenyl)-4-hydroxy-2-methoxycarbonyl-3-[4-(1-propyl)benzoyl]-6,7,8-trimethoxynaphthalene] | 1.38 µM | 20% | 42%
CCC(CC)CC(=O)c1c(C(=O)OC)c(-c2ccc(OC)c(OC)c2)c2sccc2c1O [Example 15, 7-(3,4-Dimethoxyphenyl)-5-(3-ethyl-1-oxopentyl)-4-hydroxy-6-(methoxycarbonyl)benzo[b]thiophene] | 7.9 µM | 23% | 43%
COC(=O)c1c(C(=O)c2ccc(C(F)(F)F)cc2)c(O)c2cc3c(cc2c1-c1ccc(OC)cc1OC)OCO3 [Example 46, 1-(2,4-Dimethoxyphenyl)-4-hydroxy-2-methoxycarbonyl-6,7-methylenedioxy-3-[4-(trifluoromethyl)benzoyl]naphthalene] | 6.2 µM | 5% | 47%
COC(=O)c1c(C(=O)C(C)C)c(O)c2cc(OC)c(OC)c(OC)c2c1-c1ccc(OC)c(OC)c1 [Example 3, 1-(3,4-Dimethoxyphenyl)-4-hydroxy-2-methoxycarbonyl-3-(2-methyl-1-oxopropyl)-6,7,8-trimethoxynaphthalene] | 0.12 µM | 21% | 57%
COC(=O)c1c(C(=O)c2ccc(F)cc2)c(O)c2cc(OC)c(OC)c(OC)c2c1-c1ccc(OC)c(OC)c1 [Example 26, 1-(3,4-Dimethoxyphenyl)-3-(4-fluorobenzoyl)-4-hydroxy-2-methoxycarbonyl-6,7,8-trimethoxynaphthalene] | 0.79 µM | 10% | 54%
COC(=O)c1c(C(=O)c2ccc(C(F)(F)F)cc2)c(O)c2cc(OC(C)C)c(OC(C)C)cc2c1-c1ccc(OC)c(OC)c1 [Example 40, 6,7-Bis(2-propyloxy)-1-(3,4-dimethoxyphenyl)-4-hydroxy-2-methoxycarbonyl-3-[4-(trifluoromethyl)benzoyl]naphthalene] | 4.29 µM | 23% | 56%

Further lines, with some results ahead:

IC50 (LDL) | SMILES | inhibition in vivo at 0.12 % in diet (cholesterol in serum; [1]) | inhibition in vivo at 0.12 % in diet (cholesterol in serum; [2])
0.54 µM | COC(=O)c1c(C(=O)C(C)C)c(O)c2c(C)c(OC)c(OC)c(OC)c2c1-c1ccc(OC)c(OC)c1 [Example 76, 1-(3,4-dimethoxyphenyl)-3-(2-methyl-1-oxo-propyl)-4-hydroxy-2-methoxycarbonyl-5-methyl-6,7,8-trimethoxynaphthalene] | 15% | 43%
1.28 µM | CCC(=O)c1c(C(=O)OC)c(-c2ccc(OC)c(OC)c2)c2sc(CC)c(OC)c2c1O [Example 56, 7-(3,4-Dimethoxyphenyl)-2-ethyl-4-hydroxy-3-methoxy-6-methoxycarbonyl-5-(1-oxopropyl)benzo[b]thiophene] | 20% | 58%
1.47 µM | CCC(CC)C(=O)c1c(C(F)(F)F)c(-c2ccc(OC)c(OC)c2)c2c(OC)c(OC)c(OC)cc2c1O [Example 66, 1-(3,4-Dimethoxyphenyl)-3-(2-ethyl-1-oxobutyl)-4-hydroxy-2-(trifluoromethyl)-6,7,8-trimethoxynaphthalene] | 9% | 36%
2.79 µM | CCC(CC)CC(=O)c1c(C(=O)OC)c(-c2ccc(OC)c(OC)c2)c2c(OC)c(OC)c(OC)c(OC)c2c1O [Example 69, 1-(3,4-dimethoxyphenyl)-3-(3-ethyl-1-oxopentyl)-4-hydroxy-2-methoxycarbonyl-5,6,7,8-tetramethoxynaphthalene] | 10% | 16%
